This note sets out measurements from US10030016B2 (Sunesis Pharmaceuticals, Inc., priority 2009, dated 2018).

The subject of assay [1] is phospho-akt (Thr308) in PC-3 cells. Put plainly: Inhibition of phospho-akt (Thr308) in PC-3 cells, MSD phospho-akt 308 ELISA kit. The assay is classed as cell-based. Conditions: Homo sapiens, 2 hours, no serum, read-out: EC50. The gist of the method:
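Read-out is MSD electrochemiluminescence of Akt phosphorylated at Thr308 in lysates of PC-3 cells treated 2 h with compound in serum-free medium. Wortmannin at 5 μM defined the low control and DMSO the high control.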
(In general: In an ELISA, binding on a coated surface is turned into a signal by an enzyme label.)

Assay [2] deals with PDK1 (Homo sapiens (Human), UniProt O15530). Put plainly: PDK1 kinase assay (coupled PDK1/AKT/FAM-crosstide assay, IMAP fluorescence polarization). The assay is classed as biochemical. The gist of the method:
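Inhibition is derived by 4-parameter fitting of ΔmP from an IMAP fluorescence polarization read of FAM-crosstide (100 nM) phosphorylation. The cascade ran 30 min at 25 °C with 40 μM ATP, using insect-cell GST-PDK1 51-359 (0.75 nM) driving 10 nM unphosphorylated AKT2 140-467-PIFtide fusion.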
(In fluorescence polarisation assays a small probe gives low polarisation when free and higher when bound to something large.)

The mark [3] stands for this setting: inhibition of P308 Akt in PC-3 cells using MSD.
Setting [4] is: inhibition of P308 Akt in PC-3 cells, MSD.
Where [5] appears, read: inhibition of phospo-PDK1 in vitro.

Read-outs that look alike come from different tables or passages of the source. Some results are limits rather than exact numbers.

Chain of PDK1 (O15530 51-359): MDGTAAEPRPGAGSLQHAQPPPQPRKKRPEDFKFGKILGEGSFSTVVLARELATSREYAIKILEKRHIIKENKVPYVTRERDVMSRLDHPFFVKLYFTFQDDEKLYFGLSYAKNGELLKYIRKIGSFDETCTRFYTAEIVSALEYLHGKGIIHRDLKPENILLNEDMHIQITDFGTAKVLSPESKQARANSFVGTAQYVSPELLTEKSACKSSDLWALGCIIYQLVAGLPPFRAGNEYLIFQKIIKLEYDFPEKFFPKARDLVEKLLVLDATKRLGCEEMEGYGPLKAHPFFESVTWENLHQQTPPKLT

As to `C[C@@H](NC(=O)c1cc(C(F)(F)F)cnc1NCc1ccc(-c2cnc3[nH]nc(N)c3c2)cc1)c1ccc(Br)cc1` [Example 275, (R)-2-(4-(3-amino-1H-pyrazolo[3,4-b]pyridin-5-yl)benzylamino)-N-(1-(4-bromophenyl)ethyl)-5-(trifluoromethyl) nicotinamide], in assay [1] (setting [3]), the EC50 was greater than 10000 nM. The compound further registered an IC50 in assay [2] (inhibition of PDK1 in vitro) greater than 5000 nM.

Consider `Nc1ncc(-c2ccc(CNc3ncc(C(F)(F)F)cc3C(=O)Nc3ccc(F)cc3)cc2)nc1N1CCNCC1` [Example 193, 2-[4-(3′-Amino-3,4,5,6-tetrahydro-2H-[1,2′]bipyrazinyl-6′-yl)-benzylamino]-N-(4-fluoro-phenyl)-5-trifluoromethyl-nicotinamide], for which the EC50 in assay [1] (setting [3]) lay in the range of 1000 to 10000 nM. This compound yielded an IC50 in assay [2] (inhibition of PDK1 in vitro) of less than 100 nM.

Consider `C[C@H](NC(=O)c1cc(C#N)cnc1NCc1ccc(-c2cnc(N)c(C(=O)NCCCS(C)(=O)=O)n2)cc1)c1ccc(F)cc1` [Example 208], for which the EC50 in assay [1] (setting [3]) is less than 1000 nM. Also, the IC50 in assay [2] (inhibition of PDK1 in vitro) is less than 100 nM.

For the compound `CN(C)CCCNS(=O)(=O)c1cnc(NCc2ccc(-c3ccc4ncnc(N)c4c3)s2)c(C(=O)NCc2ccc(F)c(F)c2)c1` [Example 8.6.14, 2-(((5-(4-aminoquinazolin-6-yl)thiophen-2-yl)methyl)amino)-N-(3,4-difluorobenzyl)-5-(N-(3-(dimethylamino)propyl)sulfamoyl) nicotinamide], the EC50 in assay [1] (setting [4]) was greater than 10000 nM. The IC50 in assay [2] (setting [5]) was less than 100 nM.

Regarding `Nc1n[nH]c2ncc(-c3ccc(CNc4ncc(C(F)(F)F)cc4-c4nc5cc(F)ccc5o4)cc3)cc12` [Example 348, 5-(4-((3-(5-fluorobenzo[d]oxazol-2-yl)-5-(trifluoro-methyl)pyridin-2-ylamino)methyl)phenyl)-1H-pyrazolo [3,4-b]pyridin-3-amine], the EC50 in assay [1] (setting [3]) is greater than 10000 nM. In assay [2] (inhibition of PDK1 in vitro), the IC50 is greater than 5000 nM.

In the case of `C[C@H](NC(=O)c1cc(C#N)cnc1NCc1ccc(-c2cnc3[nH]nc(CN(C)C)c3c2)cc1)c1ccc(F)cc1` [Example 151, (S)-5-cyano-2-(4-(3-((dimethylamino)methyl)-1H-pyrazolo[3,4-b]pyridin-5-yl)benzyl-amino)-N-(1-(4-fluorophenyl)ethyl) nicotinamide], the EC50 in assay [1] (setting [3]) is greater than 10000 nM. In assay [2] (inhibition of PDK1 in vitro), this compound had an IC50 of less than 100 nM.

`C[C@H](NC(=O)c1cc(C#N)cnc1NCc1ccc(-c2cnc(NCCO)cn2)cc1)c1ccc(F)cc1` [Example 227, 5-Cyano-N-[(S)-1-(4-fluoro-phenyl)-ethyl]-2-{4-[5-(2-hydroxy-ethylamino)-pyrazin-2-yl]-benzylamino}-nicotinamide]: the 50% effective concentration (EC50) in assay [1] (setting [3]) was in the range of 1000 to 10000 nM. Besides, in assay [2] (inhibition of PDK1 in vitro), the half-maximal inhibitory concentration (IC50) lay in the range of 100 to 1000 nM.

Regarding `CC(C)Oc1cc(CNc2ncccc2C(=O)NCc2ccc(F)c(F)c2)cc(-c2ccc3ncnc(N)c3c2)c1` [Example 5.6], in assay [1] (setting [4]), the EC50 lay in the range of 1000 to 10000 nM. Besides, the IC50 in assay [2] (setting [5]) is less than 100 nM.

With `Nc1ncnc2ccc(-c3ccc(CNc4nccc5c4C(=O)N(Cc4ccc(F)c(F)c4)C5)s3)cc12` [Ex. 7.19, 4-({[5-(4-aminoquinazolin-6-yl)thiophen-2-yl]methyl}amino)-2-(3,4-difluorobenzyl)-1,2-dihydro-3H-pyrrole[3,4-c]pyridin-3-one], the EC50 in assay [1] (setting [4]) was 1000 to 10000 nM. Moreover, the IC50 in assay [2] (setting [5]) fell in the range of 100 to 1000 nM.

In the case of `Nc1cccc(-c2nc(-c3ccc(CNc4ncc(C(F)(F)F)cc4C(=O)Nc4ccc(F)cc4)cc3)cnc2N)c1` [Example 239, 2-{4-[5-Amino-6-(3-amino-phenyl)-pyrazin-2-yl]-benzylamino}-N-(4-fluoro-phenyl)-5-trifluoromethyl-nicotinamide], the EC50 in assay [1] (setting [3]) was 1000 to 10000 nM. In addition, in assay [2] (inhibition of PDK1 in vitro), the half-inhibitory concentration (IC50) is less than 100 nM.

Take `CNC(=O)c1cc(S(=O)(=O)NCCO)cnc1NCc1ccc(-c2ccc3ncnc(N)c3c2)s1` [Example 342]: in assay [1] (setting [3]), the EC50 is greater than 10000 nM. This compound also registered a half-inhibitory concentration (IC50) in assay [2] (inhibition of PDK1 in vitro) greater than 5000 nM.

The term EC50 denotes the midpoint of the concentration-response curve. A word on the IC50: it is the point on the concentration scale where inhibition reaches its midpoint.
